In experiment [1] the test system is rat ear. Put plainly: Anti-inflammatory activity: croton oil induced rat ear inflammation. It is filed as in vivo. Particulars: 1.00 mg/rat ear, topical in 1% croton oil in tetrahydrofuran, ear weight after 6 hours. On the procedure:
The method used is based on that described by G.Tonelli et al (Endocrinology, 77, 625-634, 1965). An inflammation is induced in the rat ear by the application of 50 pl of a 1% solution of croton oil in tetrahydrofuran, test compounds being dissolved in the irritant vehicle. After 6 hours the inflammation is assessed by killing the animals and weighing the ears. Topical anti-inflammatory activity of a compound is generally considered to be shown when a significant (5% level) reduction in ear weight is seen compared to non- drug treated control.

For experiment [2], the system named is Female CFLP mice. Put plainly: Anti-hyperglycaemic activity: subcutaneous glucose load in fasted mice. It is filed as in vivo. Particulars: Mus musculus, po, read-out: % REDUCTION IN AREA UNDER BLOOD GLUCOSE CURVE; for inhibition in vivo at 12.5 µmol/kg: dose 12.5 μmol/kg orally. The procedure: Female CFLP mice, weighing approximately 25 g, were fasted for 24 hours prior to the study. The compounds under study were administered orally as an aqueous solution to each of 6 mice. 30 Minutes later a blood sample (10 pl) was obtained from the tail for the analysis of blood glucose. Immediately after taking this blood sample, glucose (1 g/kg body weight) was administered subcutaneously to each mouse. 6 Mice were given water as a control. Blood samples were then obtained from each mouse at 30 minute intervals for 120 minutes.
Compounds that produced a significant (P 0.05) reduction of blood glucose, compared with control mice given water, at any time interval, were considered active. The area under the blood glucose curve over the 2 hour period after the administration of the glucose was calculated for each compound and compared with the value for control animals.

For experiment [3], the system named is Rat hearts. Put plainly: Cardiac activity: Langendorff perfused rat heart. On the procedure: Rat hearts were perfused by the Langendorff procedure. Hearts were dissected free within 30 seconds of death and reverse perfused via the aorta and coronary vessels with Krebs-Ringer bicarbonate solution (pH 7.4, 37°C) gassed with 95% oxygen:5% carbon dioxide at a flow rate between 8-12 cm^3/minute. Responses were observed after injection of drug dissolved in isotonic saline into the perfusion media.
Results are expressed as a percentage of the maximum response due to salbutamol.

The mark [4] stands for this setting: mice fasted 24 hours, glucose 1 g/kg subcutaneously, 2 hour period, compared with control given water.
Setting [5] is: 30 µg added to perfusate, perfused rat heart, read-out: HEART RATE.
The mark [6] stands for this setting: 30 µg added to perfusate, perfused rat heart, read-out: HEART TENSION.
The mark [7] stands for this setting: dose 1.0 μmol/kg orally, mice fasted 24 hours, glucose 1 g/kg subcutaneously, 2 hour period, compared with control given water.
Where [8] appears, read: dose 2.5 μmol/kg orally, mice fasted 24 hours, glucose 1 g/kg subcutaneously, 2 hour period, compared with control given water.

Structures can show the parent of a compound that is named as a salt. Where two headings read alike, the source gives them in different places.

What is called inhibition is the drop in the measured response relative to a control, in per cent. A lower inhibition goes with little suppression.

For the molecule `COC(=O)CCSc1ccc(CC(C)NCC(O)c2cccc(C(F)(F)F)c2)cc1` (centres unmarked) [Example 1, N-[2-(4-(2-Carbomethoxyethylthio)phenyl)-1-methylethyl] 2-hydroxy-2-(3-trifluoromethylphenyl)ethanamine], the inhibition in experiment [1] is 89%. Further, the outcome in experiment [1] (active = significant (5% level) reduction in ear weight) was Active. In addition, the inhibition in vivo at 12.5 µmol/kg in experiment [2] (setting [4]) is 35%. Also, the values for the Emax at 30 µg in experiment [3] (setting [5]) and in experiment [3] (setting [6]) were 0% and 4%, respectively.
As for `CSc1ccc(CC(C)NCC(O)c2cccc(Cl)c2)cc1` (centres unmarked) [Example 2, N-[2-(4-Methylthiophenyl)-1-methylethyl]-2-hydroxy-2-(3-chlorophenyl)ethanamine], the inhibition in vivo at 1 µmol/kg in experiment [2] (2 h) was 8%. Further, the Emax at 30 µg came to 23% in experiment [3] (Rattus norvegicus, read-out: HEART RATE) and 25% in experiment [3] (Rattus norvegicus, read-out: HEART TENSION).
Turning to `CC(Cc1ccc(SC(C)C)cc1)NCC(O)c1cccc(Cl)c1` (centres unmarked) [Example 3, N-[2-(4-Isopropylthiophenyl)-1-methylethyl]-2-hydroxy-2-(3-chlorophenyl)ethanamine hydrochloride], in experiment [2] (2 h), the inhibition in vivo at 0.5 µmol/kg came to 28%.
For the molecule `CC(Cc1ccc(SCc2ccccc2)cc1)NCC(O)c1cccc(Cl)c1` (centres unmarked) [Example 4, N-[2-(4-Benzylthiophenyl)-1-methylethyl]-2-hydroxy-2-(3-chlorophenyl)ethanamine], the inhibition in vivo at 12.5 µmol/kg in experiment [2] (setting [4]) turned out to be 17%.
As for `CC(Cc1ccc(S(C)(=O)=O)cc1)NCC(O)c1cccc(C(F)(F)F)c1` (centres unmarked) [Example 7, N-[2-(4-Methylsulphonylphenyl)-1-methylethyl]-2-hydroxy-2-(3-trifluoromethylphenyl)ethanamine], the inhibition in vivo at 12.5 µmol/kg in experiment [2] (setting [4]) worked out at 48%. Moreover, the Emax at 30 µg stood at 25% in experiment [3] (setting [5]) and 0% in experiment [3] (setting [6]).
Regarding `CC(Cc1ccc(S(=O)(=O)C(C)C)cc1)NCC(O)c1cccc(C(F)(F)F)c1` (centres unmarked) [Example 8, N-[2-(4-Isopropylsulphonylphenyl)-1-methylethyl]-2-hydroxy-2-(3-trifluoromethylphenyl)ethanamine], the Emax at 30 µg in experiment [3] (setting [5]) was 29%; in experiment [3] (setting [6]) it was 30%.
Take `CC(Cc1ccc(S(=O)(=O)CCCO)cc1)NCC(O)c1cccc(C(F)(F)F)c1` (centres unmarked) [Example 9, N-[2-(4-{3-Hyaroxypropylsulphonyl}phenyl)-1-methylethyl] -2-hydroxy-2-(3-trifluoromethylphenyl)-ethanamine]: the inhibition in vivo at 12.5 µmol/kg in experiment [2] (setting [4]) came out at 52%.
For `COC(=O)CCS(=O)(=O)c1ccc(CC(C)NCC(O)c2cccc(Cl)c2)cc1` (centres unmarked) [Example 10, N-[2-(4-{2-Carbomethoxyethylsulphonyl}phenyl)-1-methylethyl] -2-hydroxy-2-(3-chlorophenyl)ethanamine], the inhibition in vivo at 1 µmol/kg in experiment [2] (setting [7]) was 10%. In addition, the Emax at 30 µg in experiment [3] (setting [5]) came to 31%; in experiment [3] (setting [6]), 91%.
On to `CC(Cc1ccc(CS(C)(=O)=O)cc1)NCC(O)c1cccc(C(F)(F)F)c1` (stereo not drawn) [Example 11, N-[2-(4-Methylsulphonylmethylphenyl)-l-methylethyl] -2-hydroxy-2-(3-trifluoromethylphenyl)ethanamine], for which the Emax at 30 µg is 67% in experiment [3] (setting [5]) and 18% in experiment [3] (setting [6]).
Consider `CC(Cc1ccc(CS(=O)(=O)C(C)C)cc1)NCC(O)c1cccc(C(F)(F)F)c1` (centres unmarked) [Example 12, N-[2-(4-Isopropylsulphonylmethylphenyl)-1-methylethyl] -2-hydroxy-2-(3-trifluoromethylphenyl)ethanamine], for which the results for the Emax at 30 µg in experiment [3] (setting [5]) and in experiment [3] (setting [6]) were 13% and 40%, respectively.
Take `CC(Cc1ccc(S(=O)(=O)C(C)(C)C)cc1)NCC(O)c1cccc(Cl)c1` (centres unmarked) [Example 15, N-(2-(4-t-Butylsulphonylphenyl)-1-methylethyl]-2-hydroxy-2-(3-chlorophenyl)ethanamine hydrobromide]: the inhibition in vivo at 100 µmol/kg in experiment [2] (2 h) was found to be 48%.
In the case of `CC(Cc1ccc(SC(C)C)cc1)NCC(O)c1ccccc1` (centres unmarked) [Example 17, N-[2-(4-Isopropylthiophenyl)-1-methylethyl]-2-hydroxy-2-phenylethanamine], the inhibition in vivo at 2.5 µmol/kg in experiment [2] (2 h) was 30%.
Take `CSc1ccc(C[C@H](C)NC[C@H](O)c2cccc(Cl)c2)cc1` [Example 18]: the inhibition in vivo at 5 µmol/kg in experiment [2] (2 h) was found to be 16%.
For `CSc1ccc(C[C@@H](C)NC[C@H](O)c2cccc(Cl)c2)cc1` [Example 19, (RR, SS)-N-[2-(4-Methylthiophenyl)-1-methylethyl]-2-luydroxy-1-(3-chlorophenyl) ethanamine hydrochloride], the inhibition in vivo at 2.5 µmol/kg in experiment [2] (2 h) was 26%.
`CC(Cc1ccc([S+](C)[O-])cc1)NCC(O)c1cccc(Cl)c1` (centres unmarked) [Example 20, N-[2-(4-Methylsulphinylphenyl)-1-methylethyl]-2-hydroxy-2-(3-chlorophenyl) ethanamine]: in experiment [2] (setting [4]), the inhibition in vivo at 12.5 µmol/kg was 59%.
As for `COCCSc1ccc(CC(C)NCC(O)c2cccc(Cl)c2)cc1` (centres unmarked) [Example 21, N-[2-(4-(2-Methoxyethylthio)phenyl)-1-methylethyl]-2-hydroxy-2-(3-chlorophenyl)ethanamine hydrochloride], in experiment [2] (2 h), the inhibition in vivo at 1 µmol/kg is 31%.
Take `CC(Cc1ccc(SCCOc2ccccc2)cc1)NCC(O)c1cccc(Cl)c1` (centres unmarked) [Example 22, N-[2-(4-(2-Phenoxyethylthio)phenyl)-1-methyletlzyl]-2-hydroxy-2-(3-chlorophenyl) ethanamine]: in experiment [2] (setting [8]), the inhibition in vivo at 2.5 µmol/kg is 23%.
For `CNCCSc1ccc(CC(C)NCC(O)c2cccc(Cl)c2)cc1` (centres unmarked) [Example 23, N-[2-(4-(2-Methylaminoethylthio)phenyl)-1-methlethyl]-2-hydrox-2-(3-chlorophenyl)ethanamine dihydrochloride], the inhibition in vivo at 1 µmol/kg in experiment [2] (setting [7]) stood at 16%.
As to `CC(Cc1ccc(SCCSc2ccccc2)cc1)NCC(O)c1cccc(Cl)c1` (centres unmarked) [Example 24, N-[2-(4-(2-Phenylthioethylthio)phenyl)-1-methylethyl]-2-hydroxy-2-(3-chlorophenyl)ethanamine], the inhibition in vivo at 2.5 µmol/kg in experiment [2] (setting [8]) stood at 12%.
